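Cells were grown in 96-well plates and exposed to each compound for 48 hours at five concentrations; endpoints were interpolated linearly between bracketing concentrations, or set to the highest concentration if not reached. The concentration for 50% growth inhibition is given as GI50. TGI is the concentration that stops growth completely.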 A value given as a limit tells only on which side of the number the result lay.

Test systems include SW-620 colon; NCI-H23 lung; OVCAR-4 ovarian; SN12C renal; EKVX NSCLC; CCRF-CEM leukemia; HS 578T breast; A549 NSCLC; K-562 leukemia; MOLT-4 leukemia; CAKI-1 renal; 786-0 renal; IGROV1 ovarian; LOX IMVI melanoma.
Assay in all cases: NCI anticancer screen, dose series, 48 h

As to `COC(=O)c1csc([C@@H](OC(=O)[C@H](C)[C@H](CCCC(C)(Cl)Cl)OC(=O)c2csc([C@H](O)CO)n2)C(C)C)n1`, the TGI in the assay on SW-620 colon was found to be 32.6 µM; in the assay on NCI-H23 lung, 30.9 µM; with OVCAR-4 ovarian, 24.5 µM; with SN12C renal, 4.41 µM; in the assay with EKVX NSCLC it was 33.4 µM; with CCRF-CEM leukemia, 34.8 µM. Also, the TGI with HS 578T breast came to 6.65 µM; in the assay with A549 NSCLC, 32.1 µM; in the assay on K-562 leukemia it was 33.6 µM; with MOLT-4 leukemia, 32.2 µM; in the assay with CAKI-1 renal it was 32.7 µM; with 786-0 renal it was 28.3 µM. The TGI came out at 24.1 µM in the assay with IGROV1 ovarian and 23.5 µM in the assay on LOX IMVI melanoma.
Take `C#CCn1c(=O)c(I)cn(/C(=C/C(=O)OCC)C(=O)OCC)c1=O`: the TGI with SW-620 colon is 4 µM; in the assay on NCI-H23 lung, 45.5 µM; in the assay with OVCAR-4 ovarian it was 21.4 µM; in the assay on SN12C renal it was 32.3 µM; with EKVX NSCLC, 10.2 µM; with CCRF-CEM leukemia, above 57.7 µM. The TGI in the assay on HS 578T breast was above 100 µM; in the assay on A549 NSCLC, 36 µM; in the assay with MOLT-4 leukemia, 1.9 µM; in the assay on CAKI-1 renal, 3.38 µM; with 786-0 renal, 3.09 µM; with IGROV1 ovarian, 38.3 µM. This compound had a TGI with LOX IMVI melanoma above 48.5 µM.
Turning to `CCCCCCCC(CC(=O)NC(CO)C(=O)NC(CO)CC(C)C)OC(=O)CC(CCCCCCC)OC(=O)CC(CCCCCCC)OC1OC(C)C(O)C(OC2OC(C)C(OC(C)=O)C(O)C2O)C1O` (centres undefined), the TGI in the assay on SW-620 colon came to 23.3 µM; in the assay with NCI-H23 lung, 22 µM; with OVCAR-4 ovarian, 19.4 µM; in the assay on SN12C renal, 18.6 µM; in the assay on EKVX NSCLC, 28.2 µM; in the assay on CCRF-CEM leukemia, 14.2 µM. Moreover, the TGI with HS 578T breast stood at 18.7 µM; with A549 NSCLC, 23.8 µM; with K-562 leukemia it was 34.3 µM; in the assay on MOLT-4 leukemia it was 12.2 µM; in the assay on CAKI-1 renal, 29 µM; with 786-0 renal it was 18.5 µM. The compound also returned a TGI with IGROV1 ovarian of 22.5 µM.
For the compound `COc1ccc(/C=C2\N=C(N3CCCCC3)NC2=O)cc1`, the TGI with SW-620 colon, in the assay on NCI-H23 lung, in the assay on OVCAR-4 ovarian, in the assay on SN12C renal, in the assay with EKVX NSCLC and in the assay on CCRF-CEM leukemia was above 100 µM in each case. The TGI with HS 578T breast, in the assay with A549 NSCLC, in the assay with MOLT-4 leukemia, in the assay with CAKI-1 renal, in the assay with 786-0 renal and in the assay with IGROV1 ovarian was above 100 µM in each case. The same compound had a TGI in the assay with LOX IMVI melanoma above 100 µM.
Take `CCOC(=O)/C=C(\C(=O)OCC)n1cc(C)c(=O)n(Cc2cn(CCCCOC(C)=O)nn2)c1=O`: the GI50 in the assay with SW-620 colon was 5 µM. In addition, the TGI is 31.8 µM in the assay with SW-620 colon; 27.8 µM in the assay with NCI-H23 lung; 53.1 µM in the assay on OVCAR-4 ovarian; above 56.7 µM in the assay on SN12C renal; 24.2 µM with EKVX NSCLC; 5.58 µM with CCRF-CEM leukemia. In addition, the TGI in the assay with HS 578T breast came out at 42.3 µM; in the assay with A549 NSCLC it was 36.1 µM; in the assay on K-562 leukemia it was 9.01 µM; in the assay on MOLT-4 leukemia, 11.6 µM; in the assay with CAKI-1 renal it was 10.4 µM; with 786-0 renal it was 16.5 µM. For the same compound, the TGI in the assay on IGROV1 ovarian is 27.5 µM; in the assay on LOX IMVI melanoma, 23.1 µM.
Turning to `NC(N)=NS(=O)(=O)c1ccc(NNc2c3ccccc3nc3ccccc23)cc1`, the TGI in the assay on SW-620 colon worked out at 33.7 µM; in the assay with NCI-H23 lung it was 36.4 µM; in the assay on OVCAR-4 ovarian, 21.7 µM; in the assay on SN12C renal it was 35.6 µM; with EKVX NSCLC, 34.3 µM; with CCRF-CEM leukemia, 25.4 µM. Moreover, the TGI in the assay with HS 578T breast turned out to be 93.6 µM; in the assay on A549 NSCLC, 45.4 µM; with K-562 leukemia, 30.9 µM; in the assay on MOLT-4 leukemia it was 2.85 µM; with CAKI-1 renal, 55.1 µM; with 786-0 renal it was 25.5 µM. The TGI was 81.7 µM in the assay on IGROV1 ovarian and 18.2 µM in the assay with LOX IMVI melanoma.
Regarding `CC1(C)N/C(=C\[N+](=O)[O-])C(C)(C)N1O`, the TGI in the assay with SW-620 colon, with NCI-H23 lung, in the assay with OVCAR-4 ovarian, in the assay with SN12C renal, in the assay on EKVX NSCLC and in the assay with CCRF-CEM leukemia was above 10 µM in each case. In addition, the TGI in the assay on HS 578T breast, in the assay with A549 NSCLC, in the assay on MOLT-4 leukemia, in the assay with CAKI-1 renal, in the assay on 786-0 renal and in the assay with IGROV1 ovarian was above 10 µM in each case. Moreover, in the assay on LOX IMVI melanoma, the TGI is above 10 µM.
For `COC1(OC)N=C(N)C2(C#N)C(c3ccccc3)NC3=C(CCC3)C12C#N` (centres undefined), the TGI in the assay on SW-620 colon, in the assay on NCI-H23 lung, in the assay with OVCAR-4 ovarian, with SN12C renal, in the assay with EKVX NSCLC and in the assay on CCRF-CEM leukemia was above 100 µM throughout. Besides, the TGI in the assay with HS 578T breast, in the assay with A549 NSCLC, with MOLT-4 leukemia, in the assay with CAKI-1 renal, in the assay with 786-0 renal and in the assay on IGROV1 ovarian was above 100 µM in each case. The TGI in the assay on LOX IMVI melanoma was above 100 µM.
With `C/C(=N\NS(=O)(=O)c1ccc(C)cc1)c1ccccn1`, the TGI in the assay with SW-620 colon is above 100 µM; with NCI-H23 lung, above 100 µM; in the assay with OVCAR-4 ovarian, above 100 µM; in the assay on EKVX NSCLC, above 100 µM; with CCRF-CEM leukemia, 78.9 µM; in the assay with HS 578T breast, above 100 µM. The TGI in the assay on A549 NSCLC, with K-562 leukemia, in the assay with MOLT-4 leukemia, in the assay on CAKI-1 renal, in the assay on 786-0 renal and with IGROV1 ovarian was above 100 µM throughout. The TGI in the assay with LOX IMVI melanoma was above 100 µM.
Regarding `NC(=Nc1ccccc1Cl)c1ccccc1N`, the TGI in the assay on SW-620 colon, in the assay on NCI-H23 lung, in the assay on OVCAR-4 ovarian, with EKVX NSCLC, in the assay with CCRF-CEM leukemia and in the assay on HS 578T breast was above 100 µM in each case. Further, the TGI with A549 NSCLC, in the assay on K-562 leukemia, with MOLT-4 leukemia, with CAKI-1 renal, in the assay on 786-0 renal and in the assay with IGROV1 ovarian was above 100 µM each time. The compound further had a TGI with LOX IMVI melanoma above 100 µM.

For the origin of these results see PubChem BioAssay (NCI).
